Assays:
Type in all cases: cell-based
[1] = system: Trichophyton mentagrophytes NBRC 5466; assay: MIC measurement by CLSI disk method, Trichophyton mentagrophytes NBRC 5466; details: for Inhibition zone: at the MIC amount per disk of the same line, mean of longest and shortest lengths of area without growth; for MIC concentration: disk method, Glucose Peptone agar, 27 ± 1° C., one week
Description: (§1) The followings were used as test microorganisms: Staphylococcus aureus NBRC 12732, Aspergillus niger NBRC 105649, and Trichophyton mentagrophytes NBRC 5466. Measurements were performed in accordance with the disk method as defined by CLSI (Clinical and Laboratory Standards Institute). A cryopreserved strain was applied onto a test-bacterium preculture medium, and precultured under predetermined conditions. A grown colony was suspended in a test-bacterium culture medium, and cultured under predetermined conditions, and then added to a test-bacterium preparation liquid to adjust the number of cells to about 107-8 CFU/mL. Further, the prepared test-bacterium liquid was subjected to 10-times serial dilution, and cultured under predetermined conditions, and the number of cells was then counted. [table] Each compound was dissolved in methanol to 1,000 μg/mL, which was used as a sample stock solution. Otsuka distilled water in an amount of 0.75 mL was added to 0.75 mL of the sample stock solution to give a volume of 500 μg/mL. This two-fold dilution was repeated in a similar way. A total of 10 test-substance dilution series was prepared so that the concentrations of the test substance were each 1000, 500, 250, 125, 63, 31, 16, 8, 4, and 2 μg/mL. A test-bacterium liquid was uniformly spread over a corresponding sensitivity measurement agar medium in a square petri dish using a swab, and disks were placed on the medium. At this time, the distance between disks was set to 24 mm or more. A test-substance diluted liquid in an amount of 50 μL was dropped on a disk. The amount of a test substance per disk was 50, 25, 12.5, 6.3, 3.1, 1.6, 0.8, 0.4, 0.2, or 0.1 μg. Each sensitivity measurement agar medium was cultured under conditions shown in Table 1 above, and the diameter of an inhibition zone where bacterial growth was not observed was measured in mm with calipers. As control, methanol was dropped on a disk instead of a test substance.

[2] = system: Aspergillus niger NBRC 105649; assay: MIC measurement by CLSI disk method, Aspergillus niger NBRC 105649; details: for Inhibition zone: at the MIC amount per disk, mean of longest and shortest lengths of area without growth; for MIC concentration: disk method, Glucose Peptone agar, 27 ± 1° C., one week
Description: as §1

[3] = system: Staphylococcus aureus NBRC 12732; assay: MIC measurement by CLSI disk method, Staphylococcus aureus NBRC 12732; details: for Inhibition zone: at the MIC amount per disk, mean of longest and shortest lengths of area without growth; for MIC concentration: disk method, Mueller-Hinton II agar, 36 ± 1° C., 18 to 24 hours
Description: as §1

[4] = system: Staphylococcus aureus (MRSA) IID1677; assay: MIC measurement by CLSI disk method, MRSA IID 1677; details: for Inhibition zone: at the MIC amount per disk, mean of longest and shortest lengths of area without growth; for MIC: disk method, bacterial liquid 7.3 × 10^7 CFU/mL, Mueller-Hinton II agar, 35 ± 1° C., 24 h
Description: (§2) The followings were used as test microorganisms: Staphylococcus aureus (MRSA) IID 1677, Staphylococcus aureus (MRSA) ATCC 43300, Enterococcus faecalis (VRE) ATCC 51575, and Enterococcus faecalis ATCC 29212.
(§3) Measurements were performed in accordance with the disk method as defined by CLSI (Clinical and Laboratory Standards Institute).
(§4) A cryopreserved strain was applied onto a test-bacterium culture medium, and precultured under predetermined conditions (Table 3). A grown colony was again precultured (Table 3), and then suspended in a test-bacterium preparation liquid, and filtered through absorbent cotton. The number of cells was then adjusted to about 107-8 CFU/mL. This was used for the tests. Further, the prepared test-bacterium liquid was subjected to 10-times serial dilution, and cultured under predetermined conditions (Table 4), and the number of cells was then counted.
(§5) Each of the compounds according to the present invention was dissolved in methanol (Wako Pure Chemical Industries, Ltd., Special grade, Content: 99.8%) to 1000 µg/mL. This was used as a sample stock solution. Otsuka distilled water in an amount of 0.8 mL was added to 0.8 mL of the sample stock solution such that the concentration of each of the compounds according to the present invention was 500 μg/mL. This two-fold dilution was repeated in a similar way. A total of 10 test-substance dilution series were prepared so that the concentrations of the test substance were each 1000, 500, 250, 125, 63, 31, 16, 8, 4, and 2 μg/mL.
(§6) A test-bacterium liquid was uniformly spread over a sensitivity measurement agar medium in a square petri dish (230×80×14.5 mm, Eiken Chemical Co., Ltd.) using a swab, and φ8-mm thick disks (for antibiotics assay, Advantec Co., Ltd.) were placed on the medium. At this time, the distance between disks was set to 24 mm or more. A test-substance diluted liquid in an amount of 50 μL was dropped on a disk. The amount of a test substance per disk was 50, 25, 12.5, 6.3, 3.1, 1.6, 0.8, 0.4, 0.2, or 0.1 μg. A sensitivity measurement agar medium was cultured under predetermined conditions (Table 4), and the width of an inhibition zone where bacterial growth was not observed was measured in mm with calipers. As control, methanol was dropped on a disk instead of a test substance.

[5] = system: Enterococcus faecalis ATCC29212; assay: MIC measurement by CLSI disk method, Enterococcus faecalis ATCC 29212; details: for Inhibition zone: at the MIC amount per disk of the same line, mean of longest and shortest lengths of area without growth; for MIC: disk method, bacterial liquid 9.6 × 10^7 CFU/mL, Mueller-Hinton II agar, 35 ± 1° C., 24 h
Description: as §2, §3, §4, §5, §6

[6] = system: Enterococcus faecalis (VRE) ATCC51575; assay: MIC measurement by CLSI disk method, VRE ATCC 51575; details: for Inhibition zone: at the MIC amount per disk, mean of longest and shortest lengths of area without growth; for MIC: disk method, bacterial liquid 1.9 × 10^8 CFU/mL, Mueller-Hinton II agar, 35 ± 1° C., 24 h
Description: as §2, §3, §4, §5, §6

[7] = system: Staphylococcus aureus (MRSA) ATCC43300; assay: MIC measurement by CLSI disk method, MRSA ATCC 43300; details: for Inhibition zone: at the MIC amount per disk, mean of longest and shortest lengths of area without growth; for MIC: disk method, bacterial liquid 1.0 × 10^8 CFU/mL, Mueller-Hinton II agar, 35 ± 1° C., 24 h
Description: as §2, §3, §4, §5, §6

Structure (SMILES) | MIC concentration [1] | MIC concentration [2] | MIC concentration [3] | MIC [4] | MIC [5] | MIC [6] | MIC [7] | Inhibition zone [1] | Inhibition zone [2] | Inhibition zone [3] | Inhibition zone [4] | Inhibition zone [5] | Inhibition zone [6] | Inhibition zone [7]
C[C@@H]1C/C=C/CC/C=C/CCCCCCCCCCCC[C@@H](OP(=O)([O-])OCC[N+](C)(C)C)CC(=O)O1 [Compound A] | 25 μg/disk | 50 μg/disk | 50 μg/disk | – | – | – | – | 2.5 mm | 3.7 mm | 2 mm | – | – | – | –
C[C@@H]1C/C=C/CC/C=C\CCCCCCCCCCCC[C@@H](OP(=O)([O-])OCC[N+](C)(C)C)CC(=O)O1 [Compound B] | 12.5 μg/disk | 50 μg/disk | 50 μg/disk | – | – | – | – | 3.9 mm | 3.7 mm | 2.2 mm | – | – | – | –
C[C@@H]1C/C=C/CC/C=C\CCCCCCCCCCCC[C@H](OP(=O)([O-])OCC[N+](C)(C)C)CC(=O)O1 [Compound C] | 12.5 μg/disk | 50 μg/disk | 50 μg/disk | – | – | – | – | 5.1 mm | 1 mm | 1.5 mm | – | – | – | –

Continued, in another order:

MIC concentration [1] | MIC concentration [2] | MIC concentration [3] | MIC [4] | MIC [5] | MIC [6] | MIC [7] | Structure (SMILES) | Inhibition zone [1] | Inhibition zone [2] | Inhibition zone [3] | Inhibition zone [4] | Inhibition zone [5] | Inhibition zone [6] | Inhibition zone [7]
– | – | – | 50 μg/disk | 25 μg/disk | 50 μg/disk | 50 μg/disk | C[C@H]1C/C=C/CC/C=C/CCCCCCCCCCCC[C@H](OP(=O)([O-])OCC[N+](C)(C)C)CC(=O)O1 [Compound D, (3S,16E,20E,23S)-(+)-Eushearilide] | – | – | – | 1.4 mm | 2.2 mm | 4.7 mm | 3.0 mm
– | – | – | 50 μg/disk | >50 μg/disk | 50 μg/disk | 50 μg/disk | C[C@@H]1C/C=C/CC/C=C/CCCCCCCCCCCC[C@H](OP(=O)([O-])OCC[N+](C)(C)C)CC(=O)O1 [Compound E, (3S,16E,20E,23R)-(+)-Eushearilide] | – | – | – | 2.2 mm | 0.0 mm | 6.9 mm | 3.3 mm
– | – | – | 50 μg/disk | 50 μg/disk | 50 μg/disk | 50 μg/disk | C[C@H]1C/C=C/CC/C=C/CCCCCCCCCCCC[C@@H](OP(=O)([O-])OCC[N+](C)(C)C)CC(=O)O1 [Compound F, (3R,16E,20E,23S)-(−)-Eushearilide] | – | – | – | 3.1 mm | 7.7 mm | 5.8 mm | 2.4 mm
– | – | – | 50 μg/disk | 50 μg/disk | 50 μg/disk | 50 μg/disk | C[C@H]1C/C=C/CC/C=C\CCCCCCCCCCCC[C@H](OP(=O)([O-])OCC[N+](C)(C)C)CC(=O)O1 [Compound G, (3S,16Z,20E,23S)-(+)-Eushearilide] | – | – | – | 2.3 mm | 8.4 mm | 6.7 mm | 0.9 mm
– | – | – | 50 μg/disk | 50 μg/disk | 50 μg/disk | 50 μg/disk | C[C@H]1C/C=C/CC/C=C\CCCCCCCCCCCC[C@@H](OP(=O)([O-])OCC[N+](C)(C)C)CC(=O)O1 [Compound H, (3R,16Z,20E,23S)-(−)-Eushearilide] | – | – | – | 3.0 mm | 3.3 mm | 5.5 mm | 2.7 mm

Source: patent publication US10696703B2, “Method for producing eushearlilides” (TOKYO UNIVERSITY OF SCIENCE FOUNDATION, priority 2014, dated 2020)
